Reference: patent publication US7396655B2, “Method for enhancing activity of luciferase with fluorescence activity” (Chisso Corporation, priority 2005, dated 2008)
Where a name gives a salt, the structure may show the parent alone. Read-outs that look alike come from different tables or passages of the source.

How the values were obtained:
BFP-aq [1] = molecular target: T1, BFP-aq (Aequorea victoria, UniProt P07164); assay: biochemical; format: biochemical; design: The recombinant apoaequorins encoded by piP-HE is composed of 191 amino acids, whose N-terminus starts from Ala-Asn-Ser-; made in house; host or cells: E. coli strain WA802; conditions: for Luminescence activity (%) Imax: 50 mM Tris-HCl pH 8.0, 25° C., coelenterazine 1 μg, no compound = 100%
Experimental: (§1) Solutions of 50 mM Tris-HCl (pH 8.0), each containing various commercial organic compounds shown in Table 3, were prepared and pre-warmed at 25° C. The substrate coelenterazine (1 μg) was added to the solutions (200 μl) containing each of these compounds.

[2] = cited from earlier work
[3] = molecular target: T2, BFP-aq, luciferase with fluorescence activity derived from aequorin (recombinant apoaequorin, SEQ ID NO: 1 with N-terminal Val replaced by Ala-Asn-Ser; complex with coelenteramide and calcium ions) (Aequorea victoria, UniProt P02592); assay: Enhancing effect of organic compounds on BFP-aq luminescence with coelenterazine as substrate (Table 4); format: biochemical; conditions: pH 8.0, 25° C., no addition = 100%; for activity at 30000 µM: 30 mM compound; for activity at 150000 µM: 150 mM compound; for activity at 300000 µM: 300 mM compound; for activity at 3 M: 3000 mM compound
T2 construct: The recombinant apoaequorins encoded by piP-HE is composed of 191 amino acids, whose N-terminus starts from Ala-Asn-Ser-; made in house; host or cells: E. coli strain WA802 (expression vector piP-HE)
T2 sequence (P02592 with tags, fused parts or gaps): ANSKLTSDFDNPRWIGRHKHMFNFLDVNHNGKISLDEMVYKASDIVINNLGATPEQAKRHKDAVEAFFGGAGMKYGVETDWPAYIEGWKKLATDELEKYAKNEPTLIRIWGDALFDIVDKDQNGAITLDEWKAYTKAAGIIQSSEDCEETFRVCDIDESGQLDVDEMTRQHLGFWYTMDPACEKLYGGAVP
Source text: To obtain recombinant apoaequorins, the apoaequorin gene expression vector piP-HE (Japanese Laid-Open Application No. 1989-132397) constructed from pAQ440 harboring the apoaequorin gene (Japanese Laid-Open Application No. 1986-135586) was used. The recombinant apoaequorins encoded by piP-HE is composed of 191 amino acids, whose N-terminus starts from Ala-Asn-Ser-(Val of the N-terminus of SEQ ID NO: 1 in the sequence listing was replaced by Ala-Asn-Ser-).
In a VIVASPIN 2 column, the concentrated aequorin solution was overlaid with 0.9 ml of 50 mM Tris-HCl (pH 7.6) containing 5 mM calcium chloride (Wako Pure Chemicals Industries, Ltd.) and 2 mM dithiothreitol (Wako Pure Chemicals Industries, Ltd.) to trigger continuous light emission and the column was allowed to stand at […] for 24 hours or longer. […] Further, 2 ml of 50 mM Tris-HCI (pH 7.6) containing 5 mM calcium chloride (Wako Pure Chemicals Industries, Ltd.) and 2 mM dithiothreitol (Wako Pure Chemicals Industries, Ltd.) was loaded onto the VIVASPIN 2 column and the column was centrifuged under the identical conditions and then washed.
as §1

BFP-aq [4] = molecular target: T1, BFP-aq; format: biochemical; design: The recombinant apoaequorins encoded by piP-HE is composed of 191 amino acids, whose N-terminus starts from Ala-Asn-Ser-; made in house; host or cells: E. coli strain WA802; conditions: for Relative luminescence activity Imax (%) / Relative luminescence activity Initial velocity (%): substrate 1 μg, BFP-aq 1.2 μg, pH 8.0, coelenterazine without imidazole = 100%
Experimental: 200 μl of this solution was placed in five vessels, to each of which 1 μg of the substrate coelenterazine (CTZ) and its four analogs: h-CTZ, cp-CTZ, hcp-CTZ, f-CTZ were added.

[5] = substrate: Oc1ccc(Cc2nc3c(Cc4ccccc4)nc(-c4ccc(O)cc4)cn3c2O)cc1; assay: Light-emitting reaction rate of BFP-aq, Lineweaver-Burk plot (Table 6); format: biochemical, Aequorea victoria; conditions: other: coelenterazine, pH 8.0, 25° C.
[6] = pH 8, read-out: Luminescence activity (%) Imax
[7] = pH 8, read-out: Luminescence activity (%) Initial velocity
[8] = read-out: Luminescence activity, Imax
[9] = read-out: Luminescence activity, initial velocity

Cc1ncc[nH]1 [2-Methylimidazole]
activity at 30000 µM (BFP-aq [1]; [6]): 63%
activity at 150000 µM (BFP-aq [1]; [6]): 16%
activity at 30000 µM (BFP-aq [1]; [7]): 83%
activity at 150000 µM (BFP-aq [1]; [7]): 21%

Cc1c[nH]cn1 [4-Methylimidazole]
pKa [2]: 7.5
activity at 30000 µM (BFP-aq [1]; [6]): 88%
activity at 150000 µM (BFP-aq [1]; [6]): 78%
activity at 30000 µM (BFP-aq [1]; [7]): 92%
activity at 150000 µM (BFP-aq [1]; [7]): 95%

NC(=O)c1nc[nH]c1N [5-Amino-imidazole-4-carboxamide/hydrochloride]
activity at 30000 µM [3, 8]: 64%
activity at 30000 µM [3, 9]: 48%
activity at 150000 µM [3, 8]: 0%
activity at 150000 µM [3, 9]: 2%
Luminescence activity (%) Imax (BFP-aq [1]; compound 30 mM): 64%
Luminescence activity (%) Imax (BFP-aq [1]; compound 150 mM): 0%

CC(N)=O [Acetamide/hydrochloride]
activity at 30000 µM [3, 8]: 73%
activity at 30000 µM [3, 9]: 132%
activity at 150000 µM [3, 8]: 31%
activity at 150000 µM [3, 9]: 44%
activity at 300000 µM [3, 8]: 55%
activity at 300000 µM [3, 9]: 95%
Luminescence activity (%) Imax (BFP-aq [1]; compound 30 mM): 73%
Luminescence activity (%) Imax (BFP-aq [1]; compound 150 mM): 31%
Luminescence activity (%) Imax (BFP-aq [1]; compound 300 mM): 55%

N=C(N)N [Guanidine/hydrochloride]
activity at 30000 µM [3, 8]: 92%
activity at 30000 µM [3, 9]: 130%
activity at 150000 µM [3, 8]: 109%
activity at 150000 µM [3, 9]: 226%
activity at 300000 µM [3, 8]: 65%
activity at 300000 µM [3, 9]: 118%
Luminescence activity (%) Imax (BFP-aq [1]; compound 30 mM): 92%
Luminescence activity (%) Imax (BFP-aq [1]; compound 150 mM): 109%
Luminescence activity (%) Imax (BFP-aq [1]; compound 300 mM): 65%

NCCc1c[nH]cn1 [Histamine]
pKa [2]: 8.0
activity at 30000 µM (BFP-aq [1]; [6]): 69%
activity at 150000 µM (BFP-aq [1]; [6]): 22%
activity at 30000 µM (BFP-aq [1]; [7]): 92%
activity at 150000 µM (BFP-aq [1]; [7]): 26%

C[C@H](N)C(=O)O [L-Alanine]
activity at 30000 µM (BFP-aq [1]; [6]): 88%
activity at 150000 µM (BFP-aq [1]; [6]): 77%
activity at 30000 µM (BFP-aq [1]; [7]): 82%
activity at 150000 µM (BFP-aq [1]; [7]): 59%

N=C(N)NCCC[C@H](N)C(=O)O [L-Arginine]
activity at 30000 µM (BFP-aq [1]; [6]): 62%
activity at 150000 µM (BFP-aq [1]; [6]): 1%
activity at 30000 µM (BFP-aq [1]; [7]): 73%
activity at 150000 µM (BFP-aq [1]; [7]): 4%

NCC(=O)O [L-Glycine]
activity at 30000 µM [3, 8]: 87%
activity at 30000 µM [3, 9]: 104%
activity at 150000 µM [3, 8]: 83%
activity at 150000 µM [3, 9]: 78%
pKa [2]: 6.0
Luminescence activity (%) Imax (BFP-aq [1]; compound 30 mM): 87%
Luminescence activity (%) Imax (BFP-aq [1]; compound 150 mM): 83%

N[C@@H](Cc1c[nH]cn1)C(=O)O [L-Histidine]
activity at 30000 µM (BFP-aq [1]; [6]): 37%
activity at 150000 µM (BFP-aq [1]; [6]): 5%
activity at 30000 µM (BFP-aq [1]; [7]): 82%
activity at 150000 µM (BFP-aq [1]; [7]): 27%

NCCCC[C@H](N)C(=O)O [L-Lysine]
activity at 30000 µM (BFP-aq [1]; [6]): 60%
activity at 150000 µM (BFP-aq [1]; [6]): 1%
activity at 30000 µM (BFP-aq [1]; [7]): 66%
activity at 150000 µM (BFP-aq [1]; [7]): 10%

CCN(CC)CC [Triethylamine]
activity at 30000 µM (BFP-aq [1]; [6]): 68%
activity at 150000 µM (BFP-aq [1]; [6]): 8%
activity at 30000 µM (BFP-aq [1]; [7]): 68%
activity at 150000 µM (BFP-aq [1]; [7]): 12%

NC(N)=O [Urea]
activity at 30000 µM [3, 8]: 84%
activity at 30000 µM [3, 9]: 113%
activity at 150000 µM [3, 8]: 89%
activity at 150000 µM [3, 9]: 104%
activity at 3 M [3, 8]: 29%
activity at 3 M [3, 9]: 57%
Luminescence activity (%) Imax (BFP-aq [1]): 29%
Luminescence activity (%) Imax (BFP-aq [1]; compound 30 mM): 84%
Luminescence activity (%) Imax (BFP-aq [1]; compound 150 mM): 89%

O=C(O)/C=C/c1c[nH]cn1 [Urocanic acid]
pKa [2]: 5.8
activity at 30000 µM (BFP-aq [1]; [6]): 44%
activity at 30000 µM (BFP-aq [1]; [7]): 31%

O=c1c(Cc2ccc(O)cc2)nc2c(CC3CCCC3)[nH]c(-c3ccc(O)cc3)cn1-2 [cp-Coelenterazine]
Suitability as substrate in the BFP-aq light-emitting reaction system (BFP-aq [4]): served as effective substrates
Relative luminescence activity Imax (%) (BFP-aq [4]; with 150 mM imidazole): 138%
Relative luminescence activity Initial velocity (%) (BFP-aq [4]; with 150 mM imidazole): 535%
Relative luminescence activity Imax (%) (BFP-aq [4]; without imidazole): 54%
Relative luminescence activity Initial velocity (%) (BFP-aq [4]; without imidazole): 152%

O=c1c(Cc2ccc(F)cc2)nc2c(Cc3ccccc3)[nH]c(-c3ccc(O)cc3)cn1-2 [f-Coelenterazine]
Suitability as substrate in the BFP-aq light-emitting reaction system (BFP-aq [4]): served as effective substrates

O=c1c(Cc2ccccc2)nc2c(Cc3ccccc3)[nH]c(-c3ccc(O)cc3)cn1-2 [h-Coelenterazine]
Suitability as substrate in the BFP-aq light-emitting reaction system (BFP-aq [4]): served as effective substrates

O=c1c(Cc2ccccc2)nc2c(CC3CCCC3)[nH]c(-c3ccc(O)cc3)cn1-2 [hcp-Coelenterazine]
Suitability as substrate in the BFP-aq light-emitting reaction system (BFP-aq [4]): served as effective substrates
Imax relative to coelenterazine without imidazole (BFP-aq [4]; with 150 mM imidazole): 4 fold
Velocity of light-emitting reaction relative to coelenterazine without imidazole (BFP-aq [4]; with 150 mM imidazole): 25 fold

B1: BFP-aq, luciferase with fluorescence activity derived from aequorin (recombinant apoaequorin, SEQ ID NO: 1 with N-terminal Val replaced by Ala-Asn-Ser; complex … (protein)
chain: MTSKQYSVKLTSDFDNPRWIGRHKHMFNFLDVNHNGKISLDEMVYKASDIVINNLGATPEQAKRHKDAVEAFFGGAGMKYGVETDWPAYIEGWKKLATDELEKYAKNEPTLIRIWGDALFDIVDKDQNGAITLDEWKAYTKAAGIIQSSEDCEETFRVCDIDESGQLDVDEMTRQHLGFWYTMDPACEKLYGGAVP
notes: The recombinant apoaequorins encoded by piP-HE is composed of 191 amino acids, whose N-terminus starts from Ala-Asn-Ser-; made in house; host or cells: E. coli strain WA802 (expression vector piP-HE)
Km ([5]; with 150 mM imidazole): 9.2 μM μM
Km ([5]; without imidazole): 9.6 μM μM
